Some results are limits rather than exact numbers.

The test system of data set [1] is MALME-3M. The data set is described as follows: Melanoma cytotoxicity assay (resazurin). Type of data set: cell-based. Here is the method:
(§1) On day 1, the cell line trypsinized and centrifuged to form cell pellet. The pellet was diluted in media, then counted using Countess automated cell counter. Approximately 4000 cells (198 uL) per well plated in […]. A control well of 200 uL growth media was also prepared. Wells closest to plate perimeter were filled with 200 uL PBS to prevent inner well evaporation. The 96 well plates are incubated in 37° C. incubator at 5% CO2 for 24 hours.
(§2) On day 2, compounds were added (in triplicate) along with DMSO/Dacarbazine controls (2 uL) added to bring wells to volume of 200 μL. The 96 well plates are incubated in 37° C. incubator at 5% CO2 for 24 hours.
(§3) On day 3, 40 μL of 0.15 mg/ml reszurin solution added to wells. Samples were placed in a 37° C. incubator at 5% CO2 for 6 hours. Excitation and emission for fluorescence measured at 544 nm and 590 nm using BMG Labtech Fluostar Optima plate reader
(§4) Percent viability determined by taking average of each triplicate well fluorescence and subtracting GM well reading to remove the background signal. This difference is then divided by the average of the negative control (DMSO) wells to determine percent viability.
(§5) IC50s were determined by using cereal dilution of compound to determine viability. Viabilities and concentration of cells are analyzed in Graphpad Prism by creating sigmoidal curve graph, which will determine the IC50 concentration.
(§6) We analyzed the ability of the thiazole-androstane derivatives to inhibit growth in various melanoma cell lines. The growth inhibition against melanoma cell lines of various compound is shown below in Tables 19 and 20. Inhibition results are reported as the IC50 concentration in μM of the indicated compound or as the percent viability […] of the indicated compound. NA=not available.
For orientation: The colour change of resazurin is a common sign of viable cells or microbes.

Data set [2] concerns SK-MEL-25. The experiment in a line: Melanoma cytotoxicity assay (resazurin). Type of data set: cell-based. The protocol:
(§7) Cytotoxicity Assay: Melanoma cells (˜4000 cells in each well) were incubated in a 96 well plates at 37° C. in 5% CO2 for 24 hours. Compounds were added in triplicates and the plate was further incubated for 24 hours. DMSO and dacarbazine were added as technical and positive controls respectively. Next day resazurin was added and the plate was further incubated for 6 hours followed by reading the plate at 544 nm (excitation) and 590 nm (emission) using BMG Labtech Fluostar Optima plate reader. IC50 values were determined by using Graphpad Prism.
as §1, §2, §3, §4, §5, §6

The subject of data set [3] is SK-MEL-5. The experiment in a line: Melanoma cytotoxicity assay (resazurin). Type of data set: cell-based. The protocol: as §7, §1, §2, §3, §4, §5, §6
Data set [4] concerns LOX IMVI. The experiment in a line: Melanoma cytotoxicity assay (resazurin). Type of data set: cell-based. Here is the method: as §7, §1, §2, §3, §4, §5, §6
Data set [5] relates to SK-MEL-28. The data set is described as follows: Melanoma cytotoxicity assay (resazurin). Type of data set: cell-based. Here is the method: as §7, §1, §2, §3, §4, §5, §6
The subject of data set [6] is HCT-15 (Colon Cancer). The data set is described as follows: NCI 60 one dose screen. Type of data set: cell-based, human.
The test system of data set [7] is SF-539. The experiment in a line: NCI 60 one dose screen. The data set is classed as cell-based, human.
Data set [8] relates to SF-295. The data set is described as follows: NCI 60 one dose screen. The data set is classed as cell-based, human.
Data set [9] relates to NCI-H522 (NSCLC). The data set is described as follows: NCI 60 one dose screen. The data set is classed as cell-based, human. As to conditions: Non-small Cell Lung Cancer.
Data set [10] relates to 60 different human tumor cell lines. The experiment in a line: NCI Development Therapeutics Program 60 cell line screen, one dose. Type of data set: cell-based.

Usually IC50 stands for the midpoint of a concentration-inhibition curve. A lower IC50 goes with greater potency in that assay. For the molecule `C=CCNc1nc2c(s1)C1=CC[C@H]3[C@@H]4CC[C@H](O)[C@@]4(C)CC[C@@H]3[C@@]1(C)CC2` [IIIa.6, (1S,2R,13R,14S,17S,18S)-7-(allylamino)-2,18-dimethyl-8-thia-6-azapentacyclo[11.7.0.02,10.05,9.014,18]icosa-5(9),6,10-trien-17-ol], in [1] (human, 24 h), the “MALME-3M (% viability)” value turned out to be 29.73%. Besides, in [2] (human, 24 h), the “SK-MEL-25 (% viability)” value was found to be 3.79%. In addition, the “SK-MEL-5 (% viability)” value in data set [3] (human, 24 h) was found to be 3.52%. Besides, the IC50 in data set [4] (Homo sapiens, LOX IMVI melanoma cells) was more than 20 µM. For the same molecule, in data set [4] (human, 24 h), the “LOX-IMVI (% viability)” value came out at 11%. For the same molecule, in [5] (human, 24 h), the “SK-MEL-28 (% viability)” value is 2.04%.
As for `C[C@]12CC[C@H]3[C@@H](CC=C4c5sc(Nc6ccccc6[N+](=O)[O-])nc5CC[C@@]43C)[C@@H]1CC[C@@H]2O` [IIIa.16, (1S,2R,13R,14S,17S,18S)-2,18-dimethyl-7-(2-nitroanilino)-8-thia-6-azapentacyclo[11.7.0.02,10.05,9.014,18]icosa-5(9),6,10-trien-17-ol], the “MALME-3M (% viability)” value in data set [1] (human, 24 h) was 102.39%. In [2] (human, 24 h), the “SK-MEL-25 (% viability)” value turned out to be 26.7%. In data set [3] (human, 24 h), the “SK-MEL-5 (% viability)” value was determined as 10.22%. Moreover, the “LOX-IMVI (% viability)” value in [4] (human, 24 h) is recorded as 67%. Also, in data set [5] (human, 24 h), the “SK-MEL-28 (% viability)” value turned out to be 8.47%.
In the case of `C[C@]12CC[C@H]3[C@@H](CC=C4c5sc(Nc6ccc(C(=O)O)cc6)nc5CC[C@@]43C)[C@@H]1CC[C@@H]2O` [IIIa.26, 4-[[(1S,2R,13R,14S,17S,18S)-17-hydroxy-2,18-dimethyl-8-thia-6-azapentacyclo[11.7.0.02,10.05,9.014,18]icosa-5(9),6,10-trien-7-yl]amino]benzoic acid], the “MALME-3M (% viability)” value in data set [1] (human, 24 h) is given as 113.38%. The “SK-MEL-25 (% viability)” value in data set [2] (human, 24 h) was 37.03%. The “SK-MEL-5 (% viability)” value in [3] (human, 24 h) is listed as 93.06%. Besides, in data set [4] (human, 24 h), the “LOX-IMVI (% viability)” value is 79%. For the same molecule, in [5] (human, 24 h), the “SK-MEL-28 (% viability)” value worked out at 69.56%.
For `C[C@]12CC[C@H]3[C@@H](CC=C4c5sc(Nc6cccc(C(=O)O)c6)nc5CC[C@@]43C)[C@@H]1CC[C@@H]2O` [IIIa.35, 3-[[(1S,2R,13R,14S,17S,18S)-17-hydroxy-2,18-dimethyl-8-thia-6-azapentacyclo[11.7.0.02,10.05,9.014,18]icosa-5(9),6,10-trien-7-yl]amino]benzoic acid], the “MALME-3M (% viability)” value in data set [1] (human, 24 h) was found to be 122.92%. Moreover, in [2] (human, 24 h), the “SK-MEL-25 (% viability)” value came out at 54.19%. The “SK-MEL-5 (% viability)” value in [3] (human, 24 h) was 106.21%. In addition, the “LOX-IMVI (% viability)” value in [4] (human, 24 h) is listed as 89%. Moreover, the “SK-MEL-28 (% viability)” value in data set [5] (human, 24 h) is given as 66.69%.
`C[C@]12CC[C@H]3[C@@H](CC=C4c5sc(Nc6cccc(O)c6)nc5CC[C@@]43C)[C@@H]1CC[C@@H]2O` [IIIa.39]: in data set [1] (MALME-3M melanoma cells, percent viability vs DMSO control, 24 hours with compound), the “MALME-3M (% viability)” value is reported as 45.95%. The “SK-MEL-25 (% viability)” value in data set [2] (SK-MEL-25 melanoma cells, percent viability vs DMSO control, 24 hours with compound) is 6.33%. In addition, in [3] (SK-MEL-5 melanoma cells, percent viability vs DMSO control, 24 hours with compound), the “SK-MEL-5 (% viability)” value is on record as 6.75%. The “LOX-IMVI (% viability)” value in [4] (LOX IMVI melanoma cells, percent viability vs DMSO control, 24 hours with compound) came to 51%. In addition, the “SK-MEL-28 (% viability)” value in [5] (SK-MEL-28 melanoma cells, percent viability vs DMSO control, 24 hours with compound) is 3.71%.
With “(1S,2R,13R,14S,18S)-7-(3-fluorophenyl)-2,18-dimethyl-8-thia-6-azapentacyclo[11.7.0.02,10.05,9.014,18]icosa-5(9),7,10-trien-17-one [II.12]”, the “Growth Percent” value in [6] is −38.17%; in data set [7] (one dose, CNS Cancer, SF-539) it was −33.43%; in [8] (one dose, CNS Cancer, SF-295), −18.91%; in data set [9] it was −36.55%; in [10] (Breast Cancer, BT-549), 23.16%; in [10] (Breast Cancer, HS 578T) it was 27.43%. For the same molecule, the “Growth Percent” value in [10] (Breast Cancer, MCF7) was determined as 10.76%; in data set [10] (Breast Cancer, MDA-MB-231/ATCC), 62.02%; in data set [10] (Breast Cancer, MDA-MB-468), 29.20%; in [10] (Breast Cancer, T-47D), 3.07%; in [10] (CNS Cancer, SF-268) it was 52.39%; in data set [10] (CNS Cancer, SNB-19), 60.01%. Besides, the “Growth Percent” value in [10] (CNS Cancer, SNB-75) was 44.61%; in [10] (CNS Cancer, U251) it was 18.77%; in data set [10] (Colon Cancer, COLO 205), 44.55%; in data set [10] (Colon Cancer, HCC-2998), 79.47%; in data set [10] (Colon Cancer, HCT-116), 0.51%; in [10] (Colon Cancer, HT29), 5.21%. Moreover, the “Growth Percent” value in [10] (Colon Cancer, KM12) is reported as 46.48%; in [10] (Colon Cancer, SW-620), 3.81%; in data set [10] (Leukemia, CCRF-CEM) it was 15.82%; in data set [10] (Leukemia, HL-60(TB)), 34.18%; in data set [10] (Leukemia, K-562), 7.01%; in [10] (Leukemia, MOLT-4), 5.82%. Besides, the “Growth Percent” value in data set [10] (Leukemia, RPMI-8226) was −2.88%; in data set [10] (Leukemia, SR), 5.11%; in data set [10] (Melanoma, LOX IMVI) it was 1.34%; in [10] (Melanoma, M14), 57.14%; in [10] (Melanoma, MALME-3M), 37.62%; in data set [10] (Melanoma, MDA-MB-435), 49.24%. The “Growth Percent” value in [10] (Melanoma, SK-MEL-2) turned out to be 32.06%; in data set [10] (Melanoma, SK-MEL-5), 61.51%; in data set [10] (Melanoma, SK-MEL-28), 48.00%; in data set [10] (Melanoma, UACC-62), 34.85%; in data set [10] (Melanoma, UACC-257), 77.45%; in data set [10] (Non-small Cell Lung Cancer, A549/ATCC) it was 55.01%. The “Growth Percent” value is recorded as 68.33% in [10] (Non-small Cell Lung Cancer, EKVX); 50.54% in data set [10] (Non-small Cell Lung Cancer, HOP-62); 74.28% in [10] (Non-small Cell Lung Cancer, HOP-92); 62.70% in data set [10] (Non-small Cell Lung Cancer, NCI-H23); 65.84% in data set [10] (Non-small Cell Lung Cancer, NCI-H226); 69.34% in data set [10] (Non-small Cell Lung Cancer, NCI-H322M). Further, the “Growth Percent” value is reported as 53.88% in [10] (Non-small Cell Lung Cancer, NCI-H460); 0.60% in [10] (Ovarian Cancer, IGROV1); 68.33% in data set [10] (Ovarian Cancer, NCI/ADR-RES); 7.89% in [10] (Ovarian Cancer, OVCAR-3); 65.10% in data set [10] (Ovarian Cancer, OVCAR-4); 87.24% in data set [10] (Ovarian Cancer, OVCAR-5). In addition, the “Growth Percent” value is recorded as 28.53% in data set [10] (Ovarian Cancer, OVCAR-8); 17.92% in data set [10] (Ovarian Cancer, SK-OV-3); 22.88% in data set [10] (Prostate Cancer, DU-145); 35.02% in data set [10] (Prostate Cancer, PC-3); −10.07% in data set [10] (Renal Cancer, 786-0); 11.90% in [10] (Renal Cancer, ACHN). In addition, the “Growth Percent” value in [10] (Renal Cancer, CAKI-1) is given as 36.88%; in [10] (Renal Cancer, RXF 393), −22.47%; in [10] (Renal Cancer, SN12C) it was 42.89%; in data set [10] (Renal Cancer, TK-10), 24.03%; in data set [10] (Renal Cancer, UO-31) it was 1.08%. Further, the mean growth percent is recorded as −33.43% in data set [7] (SF-539 (CNS cancer panel), 10 μM) and −18.91% in data set [8] (SF-295 (CNS cancer panel), 10 μM).

Source of the values: patent US20250296953A1, “3,4-THIAZOLO-STEROIDS AND METHODS OF MAKING AND USING THE SAME” (Arkansas State University - Jonesboro, priority 2018, published 2025).
